The values below come from article PMC4604765, “Eye drop delivery of pigment epithelium-derived factor-34 promotes retinal ganglion cell neuroprotection and axon regeneration” (Molecular and Cellular Neurosciences, 2015).

No end group written: not given here.

Test [1] concerns βIII-tubulin+ retinal neurons. The test can be described thus: Neurite outgrowth in mixed adult rat retinal cultures (βIII-tubulin immunocytochemistry). Format: cell-based. The source says: (§1) For all in vitro experiments, adult 6–8-week-old female Sprague–Dawley rats weighing 170–220 g were used. Culture experiments included retinal cells treated with: (1), Neurobasal-A (NBA) alone (Control); and equimolar concentrations of (2), 2.16; (3) 5.4; (4), 10.8 and (5), 21.6 pM PEDF-34/-44; and (6), ciliary neurotrophic factor (CNTF: Peprotech, London, UK), as a positive control at an optimal neuroprotective/axogenic concentration of 440.5 pM, established by us previously ([Ahmed et al., 2009; Douglas et al., 2009]). […] All experiments were performed in triplicate and repeated on three independent occasions.
Mixed adult rat retinal cultures containing enriched populations of retinal neurons, including RGCs, were prepared from 6–8-week-old adult female Sprague–Dawley rats, as described previously ([Ahmed et al., 2006b, 2009, 2010; Douglas et al., 2009; Vigneswara et al., 2013]). Briefly, retinal cells were dissociated using a Papain dissociation kit according to the manufacturer's instructions (Worthington Biochemicals, Lakewood, NJ, USA). Retinal cells were plated at a density of 125 × 10^3/well in poly-D-lysine and laminin pre-coated 8-well chamber slides and cultured in NBA supplemented with B27 supplement (all from Invitrogen, Paisley, UK), with appropriate treatments for 4 days at 37 °C and 5% CO2 before fixation in 4% paraformaldehyde diluted in PBS for immunocytochemistry, as described previously ([Vigneswara et al., 2013, 2014]).
Fixed cells were washed in several changes of PBS before permeabilisation and blocking of non-specific antibody sites with PBS containing 3% bovine serum albumin (BSA) and 0.1% Triton X-100 (both from Sigma, Poole, UK). Cells were then incubated with monoclonal anti-βIII-tubulin antibody (1:200 dilution; Sigma) for 1 h at room temperature (RT) to detect retinal neurons and their neurites. Cells were then washed in several changes of PBS and incubated with Alexa 488 anti-mouse IgG (1:400 dilution; Invitrogen) for 1 h at RT. After washing in several changes of PBS and mounting in Vectamount containing DAPI (Vector Laboratories, Peterborough, UK), cells were then viewed using a Zeiss epi-fluorescent microscope equipped with an AxioCam HRc and Axiovision Image capture software (all from Zeiss, Hertfordshire, UK). Immunocytochemistry included controls with primary antibody omitted, to set background levels of nonspecific staining (not shown) before image capture.
(§2) The mean number of βIII-tubulin^+ neurons surviving, with neurites and the mean neurite length were quantified as described by us previously ([Vigneswara et al., 2013, 2014]). Briefly, chamber slides were anonymised by a second investigator and βIII-tubulin^+ neuronal soma and neurites quantified in 9 quadrants/well using Axiovision software (Version 4.8; Zeiss) and ImagePro (Version 6.3; Media Cybernetics, Bethesda, MD, USA). Of the 125,000 cells/well plated, the total numbers of neurons in each experiment were determined by βIII-tubulin^+ immunocytochemistry after allowing 30 min for cells to adhere to glass culture slides. This determines the number of neurons plated/well and is used in each experiment to work out the proportion of surviving βIII-tubulin^+ neurons. Neurite outgrowth from at least 180 neurons/condition from the 9 wells was measured, except in control (NBA) cultures, in which a total of 108 neurons were measured.

Test [2] relates to retinal ganglion cells (RGCs). The test can be described thus: RGC survival after optic nerve crush (FluroGold backfilling, retinal wholemounts). Format: in vivo, rat. Conditions: weekly intravitreal injection, 2.68 nM versus 1.88 nM, 21 days after ONC. As for the experimental part:
In a separate set of experiments comprising the same treatment groups, 6 rats/treatment (i.e. 12 eyes/optic nerves/treatment) were used to evaluate RGC axon regeneration by immunostaining with growth-associated protein-43 (GAP-43) in the optic nerve.
In further experiments, 12 rats (24 eyes/optic nerves)/treatment received 1.88 nM PEDF-34 eye drops daily. Six rats (12 eyes)/treatment were used to assess RGC survival at 21 days using FG backfilling, whilst the remaining 6 rats (12 eyes/optic nerves)/treatment were used to evaluate RGC axon regeneration at 21 days by GAP-43 immunohistochemistry. […]
Nineteen days after ONC, FG (Cambridge Biosciences, Cambridge, UK) was injected into the optic nerve, between the lamina cribrosa and the ONC site ([Vigneswara et al., 2013, 2014]). […] The identity of individual retinae was anonymised by a second investigator before image capture using a Zeiss epifluorescent microscope and the number of FG^+ RGCs counted in ImagePro Version 6.0 (Media Cybernetics) from captured images of 12 rectangular areas, 3 from each quadrant, placed at radial distances from the centre of the optic disc of the inner (1/6 eccentricity), midperiphery (1/2 eccentricity) and outer retina (5/6 eccentricity). The mean densities of FG^+ RGCs/mm^2 for each retina were determined.

Test [3] has as its system βIII-tubulin+ retinal neurons.
From the text: as §1
Mixed adult rat retinal cultures containing enriched populations of retinal neurons, including RGCs, were prepared from 6–8-week-old adult female Sprague–Dawley rats, as described previously ([Ahmed et al., 2006b, 2009, 2010; Douglas et al., 2009; Vigneswara et al., 2013]). Briefly, retinal cells were dissociated using a Papain dissociation kit according to the manufacturer's instructions (Worthington Biochemicals, Lakewood, NJ, USA). […]
as §2, with “This determines the number of neurons plated/well and is used in each experiment to work out the proportion of surviving βIII-tubulin^+ neurons.” left out

[4] abbreviates: 5.4 pM (peak), 4 days in culture.
[5] abbreviates: PEDF-34 versus equimolar PEDF-44, retinal cultures.

“DPFFKVPVNKLAAAVSNFGYDLYRVRSSTSPTTN [PEDF-34]”: in test [1] (setting [4]), the mean neurite length is given as 211 ± 23 μm and the “mean proportion of βIII-tubulin+ neurons with neurites” value is listed as 21 ± 2%. In addition, in test [1] (PEDF-34 versus CNTF (440.5 pM)), the “fold longer neurites than in CNTF cultures” value turned out to be 2.2 fold and the “fold more βIII-tubulin+ neurons with neurites than in CNTF cultures” value is 10.5 fold. In test [1] (PEDF-34 versus PEDF-44), the “fold longer neurites than in PEDF-44 cultures” value stood at 1.7 fold and the “fold more βIII-tubulin+ neurons with neurites than in PEDF-44 cultures” value is on record as 2.3 fold. For the same sequence, the “more neuritogenic than PEDF-44 in vitro” value in test [1] (setting [5]) stood at 52%. Also, in test [1] (PEDF-34 versus untreated), the “fold longer neurites than in untreated cultures” value is recorded as 6.3 fold and the “fold more βIII-tubulin+ neurons with neurites than in untreated cultures” value was determined as 21 fold. Also, the “retinal neuron/RGC neuritogenesis/axogenesis compared to untreated controls” value in test [1] (statement in discussion) is on record as “Five-fold more”. The “RGC survival on increasing the dose” value in test [2] is “did not improve”. For the same sequence, the “fold increase in βIII-tubulin+ neuron numbers compared to untreated cultures” value in test [3] (5.4 pM, 4 days in culture) was 4.5 fold. The “more neuroprotective than PEDF-44 in vitro” value in test [3] (setting [5]) worked out at 43%.
